Test results published in patent publication US9822103B2, “Inhibitors of lysine methyl transferase” (priority 2013, dated 2017).

Target: recombinant EZH2-641F complex (EZH2 Y641F/EED/SUZ12/RbAp48/AEBP2) (Homo sapiens (Human), UniProt Q15910, Y641F)
Assay: EZH2 Histone Methyl Transferase Assay (scintillation proximity assay)
Assay type: biochemical
Conditions: 350 nM histone peptide substrate, 500 nM 3H-SAM, 3 hours room temperature
Method: EZH2 Histone Methyl Transferase Assay
The effectiveness of compounds of the present invention as inhibitors of histone methyl transferases can be readily tested by assays known to those skilled in the art. For example, in vitro histone methyl transferase assays may be conducted with a relevant purified histone methyl transferase and an appropriate synthetic substrate to determine the inhibitory activity of the compounds. Assays for inhibition of EZH2 by the instant compounds were performed in 384-well plates with reaction mixtures containing 350 nM of histone peptide substrate (ATKAAR-K(Me2)-SAPATGGVKKPHRYRPG-GK(Biotin), 500 nM S-[methyl-^3H]adenosyl-L-methionine (55-85 Ci/mmol), 50 mM Tris-HCl (pH 9.0), 50 mM NaCl, 1 mM dithiothreitol, Tween-20 at 0.01% and fatty-acid free bovine serum albumin at 0.01%, and recombinant EZH2-641F complex (EZH2 Y641F/EED/SUZ12/RbAp48/AEBP2) at 5 nM (>98% purity, BPS Bioscience) or 15 nM (50% purity, in-house). Reaction mixtures were incubated at room temperature for 3 hours, and the reactions were terminated by 0.005% poly-L-lysine solution in 20 mM Tris-HCl (pH 7.5) and 150 mM NaCl. Reaction products were captured by binding to strepavidin-conjugated imaging beads. Incorporation of radioactive methyl group into the histone peptide substrate was determined in Leadseeker (GE Healthcare) by means of scintillation proximity assay. Dose response curves were generated to determine the concentration required to inhibit 50% of methyl transferase activity (EC50). Compounds were dissolved at 10 mM in dimethylsulfoxide (DMSO) and evaluated at eleven concentrations. EC50 values were derived by non-linear regression analysis.

Sequence of recombinant EZH2-641F complex (EZH2 Y641F/EED/SUZ12/RbAp48/AEBP2) (Q15910 whole entry Y641F): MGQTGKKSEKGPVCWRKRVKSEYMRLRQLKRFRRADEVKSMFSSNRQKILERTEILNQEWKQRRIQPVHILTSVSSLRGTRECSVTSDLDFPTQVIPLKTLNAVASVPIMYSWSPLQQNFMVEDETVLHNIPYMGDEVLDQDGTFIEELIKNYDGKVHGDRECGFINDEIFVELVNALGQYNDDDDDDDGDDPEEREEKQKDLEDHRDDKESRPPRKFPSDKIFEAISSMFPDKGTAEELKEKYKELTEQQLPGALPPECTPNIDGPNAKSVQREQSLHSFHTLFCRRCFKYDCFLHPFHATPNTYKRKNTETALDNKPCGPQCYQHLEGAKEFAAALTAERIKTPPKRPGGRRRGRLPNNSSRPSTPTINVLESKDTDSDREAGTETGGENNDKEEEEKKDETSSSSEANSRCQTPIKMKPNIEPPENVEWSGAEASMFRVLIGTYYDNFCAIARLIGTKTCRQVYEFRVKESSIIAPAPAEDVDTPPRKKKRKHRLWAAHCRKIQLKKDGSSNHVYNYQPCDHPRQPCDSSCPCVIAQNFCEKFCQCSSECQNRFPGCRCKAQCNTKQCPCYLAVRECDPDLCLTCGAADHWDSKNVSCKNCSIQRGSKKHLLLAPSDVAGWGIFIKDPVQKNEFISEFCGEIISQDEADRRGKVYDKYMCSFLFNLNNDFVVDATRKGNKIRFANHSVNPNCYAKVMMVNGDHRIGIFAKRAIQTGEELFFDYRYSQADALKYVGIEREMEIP
Sequence of recombinant EZH2-641F complex (EZH2 Y641F/EED/SUZ12/RbAp48/AEBP2) (O75530 whole entry partner): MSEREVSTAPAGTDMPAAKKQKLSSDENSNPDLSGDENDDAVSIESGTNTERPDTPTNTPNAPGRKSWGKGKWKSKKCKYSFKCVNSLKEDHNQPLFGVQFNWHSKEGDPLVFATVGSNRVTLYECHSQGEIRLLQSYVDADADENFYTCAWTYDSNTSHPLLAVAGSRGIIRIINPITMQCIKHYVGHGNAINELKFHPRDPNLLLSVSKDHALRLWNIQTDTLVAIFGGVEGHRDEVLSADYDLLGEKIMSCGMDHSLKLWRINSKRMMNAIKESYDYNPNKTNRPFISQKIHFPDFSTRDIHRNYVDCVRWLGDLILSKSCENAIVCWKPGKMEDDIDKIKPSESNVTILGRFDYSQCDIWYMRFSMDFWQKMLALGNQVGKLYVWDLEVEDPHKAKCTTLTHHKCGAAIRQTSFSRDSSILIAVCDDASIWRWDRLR
Sequence of recombinant EZH2-641F complex (EZH2 Y641F/EED/SUZ12/RbAp48/AEBP2) (Q15022 whole entry partner): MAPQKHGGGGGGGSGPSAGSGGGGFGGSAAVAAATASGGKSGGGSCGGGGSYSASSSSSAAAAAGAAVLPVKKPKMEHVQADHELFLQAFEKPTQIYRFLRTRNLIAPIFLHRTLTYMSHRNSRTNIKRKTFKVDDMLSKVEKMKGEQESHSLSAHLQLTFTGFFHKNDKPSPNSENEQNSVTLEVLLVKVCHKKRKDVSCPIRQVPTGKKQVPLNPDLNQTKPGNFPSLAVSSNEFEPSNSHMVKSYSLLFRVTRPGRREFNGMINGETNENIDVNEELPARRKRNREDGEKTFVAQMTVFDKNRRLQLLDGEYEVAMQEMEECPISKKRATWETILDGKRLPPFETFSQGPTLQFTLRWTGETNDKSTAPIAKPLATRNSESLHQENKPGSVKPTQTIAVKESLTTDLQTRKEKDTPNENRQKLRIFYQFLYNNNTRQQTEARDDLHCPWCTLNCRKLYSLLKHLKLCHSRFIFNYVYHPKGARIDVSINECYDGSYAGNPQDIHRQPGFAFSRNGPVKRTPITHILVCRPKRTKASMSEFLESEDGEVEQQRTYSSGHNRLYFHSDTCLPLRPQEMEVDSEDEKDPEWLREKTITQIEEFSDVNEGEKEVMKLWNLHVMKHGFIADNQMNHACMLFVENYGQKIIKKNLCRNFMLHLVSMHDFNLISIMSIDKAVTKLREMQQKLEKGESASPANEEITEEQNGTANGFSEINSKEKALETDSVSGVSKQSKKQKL
Sequence of recombinant EZH2-641F complex (EZH2 Y641F/EED/SUZ12/RbAp48/AEBP2) (Q09028 whole entry partner): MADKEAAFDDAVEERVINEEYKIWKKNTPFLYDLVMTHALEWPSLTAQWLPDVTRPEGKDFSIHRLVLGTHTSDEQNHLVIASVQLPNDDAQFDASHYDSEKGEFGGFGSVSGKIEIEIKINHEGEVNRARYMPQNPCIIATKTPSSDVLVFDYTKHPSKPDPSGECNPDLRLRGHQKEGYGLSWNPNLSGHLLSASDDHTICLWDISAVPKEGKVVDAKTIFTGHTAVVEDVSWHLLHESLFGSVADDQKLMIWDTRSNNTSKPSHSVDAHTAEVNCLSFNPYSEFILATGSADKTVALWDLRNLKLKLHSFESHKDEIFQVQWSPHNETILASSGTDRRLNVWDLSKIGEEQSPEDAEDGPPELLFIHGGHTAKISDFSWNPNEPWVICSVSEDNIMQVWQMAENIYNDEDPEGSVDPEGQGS
Sequence of recombinant EZH2-641F complex (EZH2 Y641F/EED/SUZ12/RbAp48/AEBP2) (Q6ZN18 whole entry partner): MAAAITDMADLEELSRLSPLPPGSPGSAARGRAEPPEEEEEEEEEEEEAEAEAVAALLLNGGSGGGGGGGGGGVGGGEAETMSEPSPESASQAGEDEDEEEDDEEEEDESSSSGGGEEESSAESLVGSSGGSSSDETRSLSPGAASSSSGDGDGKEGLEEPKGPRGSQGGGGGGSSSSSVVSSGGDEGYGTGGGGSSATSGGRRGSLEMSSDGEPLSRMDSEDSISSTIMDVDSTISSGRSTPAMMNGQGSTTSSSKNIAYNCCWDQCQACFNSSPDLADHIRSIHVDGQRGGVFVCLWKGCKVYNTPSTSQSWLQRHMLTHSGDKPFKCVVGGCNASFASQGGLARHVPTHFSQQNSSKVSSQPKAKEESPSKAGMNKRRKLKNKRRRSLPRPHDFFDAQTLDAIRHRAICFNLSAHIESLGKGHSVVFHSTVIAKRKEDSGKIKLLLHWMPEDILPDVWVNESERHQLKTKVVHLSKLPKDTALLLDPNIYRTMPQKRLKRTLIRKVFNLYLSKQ

| SMILES | IC50 [µM] |
| --- | --- |
| COc1ccc(-c2cc(C(=O)NCc3c(C)cc(C)[nH]c3=O)cc3c2OC(C)C3)cn1 (stereo not drawn) [Example 32, N-((4,6-Dimethyl-2-oxo-1,2-dihydropyridin-3-yl)methyl)-7-(6-methoxypyridin-3-yl)-2-methyl-2,3-dihydrobenzofuran-5-carboxamide] | > 1 |
| Cc1cc(C)c(CNC(=O)c2cc3c(c(-c4ccc(N5CCOCC5)nc4)c2)OC(C)C3)c(=O)[nH]1 (stereo not drawn) [Example 33, N-((4,6-Dimethyl-2-oxo-1,2-dihydropyridin-3-yl)methyl)-2-methyl-7-(6-morpholinopyridin-3-yl)-2,3-dihydrobenzofuran-5-carboxamide] | > 1 |
| Cc1cc(C)c(CNC(=O)c2cc3c(c(-c4ccc(N5CCNCC5)nc4)c2)OC(C)C3)c(=O)[nH]1 (stereo not drawn) [Example 34, N-((4,6-Dimethyl-2-oxo-1,2-dihydropyridin-3-yl)methyl)-2-methyl-7-(6-(piperazin-1-yl)pyridin-3-yl)-2,3-dihydrobenzofuran-5-carboxamide] | > 1 |
| Cc1cc(C)c(CNC(=O)c2cc3c(c(-c4ccc(CN5CCOCC5)cc4)c2)OC(C)C3)c(=O)[nH]1 (stereo not drawn) [Example 35, N-((4,6-Dimethyl-2-oxo-1,2-dihydropyridin-3-yl)methyl)-2-methyl-7-(4-(morpholinomethyl)phenyl)-2,3-dihydrobenzofuran-5-carboxamide] | > 1 |
| COc1ccc(-c2cc(C(=O)NCc3c(C)cc(C)[nH]c3=O)cc3c2OCC3)cn1 [Example 36, N-((4,6-Dimethyl-2-oxo-1,2-dihydropyridin-3-yl)methyl)-7-(6-methoxypyridin-3-yl)-2,3-dihydrobenzofuran-5-carboxamide] | > 1 |
| Cc1cc(C)c(CNC(=O)c2cc3c(c(-c4ccc(N5CCOCC5)nc4)c2)OCC3)c(=O)[nH]1 [Example 37, N-((4,6-Dimethyl-2-oxo-1,2-dihydropyridin-3-yl)methyl)-7-(6-morpholinopyridin-3-yl)-2,3-dihydrobenzofuran-5-carboxamide] | > 1 |
| Cc1cc(C)c(CNC(=O)c2cc3c(c(-c4ccc(N5CCNCC5)nc4)c2)OCC3)c(=O)[nH]1 [Example 38, N-((4,6-Dimethyl-2-oxo-1,2-dihydropyridin-3-yl)methyl)-7-(6-(piperazin-1-yl)pyridin-3-yl)-2,3-dihydrobenzofuran-5-carboxamide] | > 1 |
| Cc1cc(C)c(CNC(=O)c2ccc3c(c2)CCC(C)(C)O3)c(=O)[nH]1 [Example 41, N-((4,6-Dimethyl-2-oxo-1,2-dihydropyridin-3-yl)methyl)-2,2-dimethylchroman-6-carboxamide] | > 1 |
| Cc1cc(C)c(CNC(=O)c2cc(Br)c3c(c2)CCC(C)(C)O3)c(=O)[nH]1 [Example 42, 8-Bromo-N-((4,6-dimethyl-2-oxo-1,2-dihydropyridin-3-yl)methyl)-2,2-dimethylchroman-6-carboxamide] | > 1 |
| COc1ccc(-c2cc(C(=O)NCc3c(C)cc(C)[nH]c3=O)cc3c2OC(C)(C)CC3)cn1 [Example 43, N-((4,6-Dimethyl-2-oxo-1,2-dihydropyridin-3-yl)methyl)-8-(6-methoxypyridin-3-yl)-2,2-dimethylchroman-6-carboxamide] | > 1 |
| CC1=CCOc2c(Br)cc(C(=O)NCc3c(C)cc(C)[nH]c3=O)cc2C1 [Example 44, 9-Bromo-N-((4,6-dimethyl-2-oxo-1,2-dihydropyridin-3-yl)methyl)-4-methyl-2,5-dihydrobenzo[b]oxepine-7-carboxamide] | > 1 |
| Cc1cc(C)c(CNC(=O)c2cc(Br)c3c(c2)CC(C)CCO3)c(=O)[nH]1 (stereo not drawn) [Example 45, 9-Bromo-N-((4,6-dimethyl-2-oxo-1,2-dihydropyridin-3-yl)methyl)-4-methyl-2,3,4,5-tetrahydrobenzo[b]oxepine-7-carboxamide] | > 1 |
| COc1ccc(-c2cc(C(=O)NCc3c(C)cc(C)[nH]c3=O)cc3c2OCCC(C)C3)cn1 (stereo not drawn) [Example 46, N-((4,6-Dimethyl-2-oxo-1,2-dihydropyridin-3-yl)methyl)-9-(6-methoxypyridin-3-yl)-4-methyl-2,3,4,5-tetrahydrobenzo[b]oxepine-7-carboxamide] | > 1 |
| Cc1cc(C)c(CNC(=O)c2ccc3c(c2)C=CCC(C)O3)c(=O)[nH]1 (stereo not drawn) [Example 47, N-((4,6-Dimethyl-2-oxo-1,2-dihydropyridin-3-yl)methyl)-2-methyl-2,3-dihydrobenzo[b]oxepine-7-carboxamide] | > 1 |
| Cc1cc(C)c(CNC(=O)c2ccc3c(c2)CCCC(C)O3)c(=O)[nH]1 (stereo not drawn) [Example 48, N-((4,6-Dimethyl-2-oxo-1,2-dihydropyridin-3-yl)methyl)-2-methyl-2,3,4,5-tetrahydrobenzo[b]oxepine-7-carboxamide] | > 1 |
| Cc1cc(C)c(CNC(=O)c2cc(Br)c3c(c2)CCCC(C)O3)c(=O)[nH]1 (stereo not drawn) [Example 49, 9-Bromo-N-((4,6-dimethyl-2-oxo-1,2-dihydropyridin-3-yl)methyl)-2-methyl-2,3,4,5-tetrahydrobenzo[b]oxepine-7-carboxamide] | > 1 |
| Cc1cc(C)c(CNC(=O)c2cc3c(c(-c4ccc(CN5CCOCC5)cc4)c2)OC(C)CCC3)c(=O)[nH]1 (stereo not drawn) [Example 50, N-((4,6-Dimethyl-2-oxo-1,2-dihydropyridin-3-yl)methyl)-2-methyl-9-(4-(morpholinomethyl)phenyl)-2,3,4,5-tetrahydrobenzo[b]oxepine-7-carboxamide] | > 1 |
| Cc1cc(C)c(CNC(=O)c2cc3c(c(-c4ccc(N5CCNCC5)nc4)c2)OC(C)CCC3)c(=O)[nH]1 (stereo not drawn) [Example 51, N-((4,6-Dimethyl-2-oxo-1,2-dihydropyridin-3-yl)methyl)-2-methyl-9-(6-(piperazin-1-yl)pyridin-3-yl)-2,3,4,5-tetrahydrobenzo[b]oxepine-7-carboxamide] | > 1 |
| COc1ccc(-c2cc(C(=O)NCc3c(C)cc(C)[nH]c3=O)cc3c2OC(C)CCC3)cn1 (stereo not drawn) [Example 52, N-((4,6-Dimethyl-2-oxo-1,2-dihydropyridin-3-yl)methyl)-9-(6-methoxypyridin-3-yl)-2-methyl-2,3,4,5-tetrahydrobenzo[b]oxepine-7-carboxamide] | > 1 |
| Cc1cc(C)c(CNC(=O)c2cc(Br)c3c(c2)CCC(C)CO3)c(=O)[nH]1 (stereo not drawn) [Example 53, 9-Bromo-N-((4,6-dimethyl-2-oxo-1,2-dihydropyridin-3-yl)methyl)-3-methyl-2,3,4,5-tetrahydrobenzo[b]oxepine-7-carboxamide] | > 1 |
| COc1ccc(-c2cc(C(=O)NCc3c(C)cc(C)[nH]c3=O)cc3c2OCC(C)CC3)cn1 (stereo not drawn) [Example 54, N-((4,6-dimethyl-2-oxo-1,2-dihydropyridin-3-yl)methyl)-9-(6-methoxypyridin-3-yl)-3-methyl-2,3,4,5-tetrahydrobenzo[b]oxepine-7-carboxamide] | > 1 |
| Cc1cc(C)c(CNC(=O)c2cc3c(c(-c4ccc(N5CCNCC5)nc4)c2)OCC(C)CC3)c(=O)[nH]1 (stereo not drawn) [Example 55, N-((4,6-Dimethyl-2-oxo-1,2-dihydropyridin-3-yl)methyl)-3-methyl-9-(6-(piperazin-1-yl)pyridin-3-yl)-2,3,4,5-tetrahydrobenzo[b]oxepine-7-carboxamide] | > 1 |
| C=CC1(C)Cc2cc(C(=O)NCc3c(C)cc(C)[nH]c3=O)cc(-c3ccc(OC)nc3)c2O1 (stereo not drawn) [Example 56, N-((4,6-Dimethyl-2-oxo-1,2-dihydropyridin-3-yl)methyl)-7-(6-methoxypyridin-3-yl)-2-methyl-2-vinyl-2,3-dihydrobenzofuran-5-carboxamide] | > 1 |
| C=CC1(C)Cc2cc(C(=O)NCc3c(C)cc(C)[nH]c3=O)cc(Br)c2O1 (stereo not drawn) [Example 57, 7-Bromo-N-((4,6-dimethyl-2-oxo-1,2-dihydropyridin-3-yl)methyl)-2-methyl-2-vinyl-2,3-dihydrobenzofuran-5-carboxamide] | > 1 |
| C=CC1(C)Cc2cc(C(=O)NCc3c(C)cc(C)[nH]c3=O)cc(-c3ccc(CN4CCOCC4)cc3)c2O1 (stereo not drawn) [Example 58, N-((4,6-Dimethyl-2-oxo-1,2-dihydropyridin-3-yl)methyl)-2-methyl-7-(4-(morpholinomethyl)phenyl)-2-vinyl-2,3-dihydrobenzofuran-5-carboxamide] | > 1 |
| C=CC1(C)Cc2cc(C(=O)NCc3c(C)cc(C)[nH]c3=O)cc(-c3ccc(N4CCNCC4)nc3)c2O1 (stereo not drawn) [Example 59, N-((4,6-Dimethyl-2-oxo-1,2-dihydropyridin-3-yl)methyl)-2-methyl-7-(6-(piperazin-1-yl)pyridin-3-yl)-2-vinyl-2,3-dihydrobenzofuran-5-carboxamide] | < 0.5 |
| C=CC1(C)Cc2cc(C(=O)NCc3c(C)cc(C)[nH]c3=O)cc(-c3cnc(N4CCN(C(=O)OC(C)(C)C)CC4)nc3)c2O1 (stereo not drawn) [Example 60, t-Butyl 4-(5-(5-(((4,6-dimethyl-2-oxo-1,2-dihydropyridin-3-yl)methyl)carbamoyl)-2-methyl-2-vinyl-2,3-dihydrobenzofuran-7-yl)pyrimidin-2-yl)piperazine-1-carboxylate] | > 1 |
